SMILES strings stand for the structures. Where two headings read alike, the source gives them in different places.

For the test, the system named is adjuvant-induced arthritis. The experiment in a line: Established Adjuvant-Induced Arthritis in Rats (A.A.). In kind it is in vivo, Charles River Lewis male rats. Particulars: Rattus norvegicus, 168 h, read-out: A. A. ED50%.
[1] abbreviates: ED50% decrease from control paw volume (uninjected, left hind paw), established adjuvant-induced arthritis, oral gavage daily, 7 days, read by visual fit.

With `COc1ccc2c(c1)c(CC(=O)O)c(C)n2C(=O)c1ccc(Cl)cc1` [Indomethacin, indomethacin], the ED50 (commonly the dose at which the effect has come halfway, by size or by number of responders) (po) was 0.3 mg/kg. Take `O=S(=O)(c1nc2c([nH]1)-c1ccc(F)cc1Oc1ccccc1-2)C(F)(F)C(F)F` [Example 2, 10-Fluoro-2-[(1,1,2,2-tetrafluoroethyl)sulfonyl]-1H-dibenzo[2,3:6,7]oxepino[4,5-d]imidazole]: the ED50 under setting [1] was found to be 4.5 mg/kg. `CC(C)Cc1ccc(C(C)C(=O)O)cc1` (centres unmarked) [Ibuprofen, ibuprofen]: the 50% effective dose (ED50) under setting [1] turned out to be 100 mg/kg. As to `CCCCC1C(=O)N(c2ccccc2)N(c2ccccc2)C1=O` [Phenylbutazone, phenylbutazone], the ED50 under setting [1] was determined as 10 mg/kg.

In the case of `Fc1ccc2c(c1)Oc1ccccc1-c1nc(SC(F)(F)C(F)F)[nH]c1-2` [1 (k), 10-Fluoro-2-[(1,1,2,2-tetrafluoroethyl)thio]-1H-dibenzo[2,3:6,7]oxepino[4,5-d]imidazole], under setting [1], the ED50 was less than 27 mg/kg.
